Assay results taken from patent US6525001B1, “Substituted pyrimidine and pyridine herbicides” (Mid-American Commercialization Corporation, priority 1997, dated 2003).

Experiments:
Experiment in all cases: Test B pre-/postemergence
Format in all cases: in vivo
Set-up in all cases: key: 0 is no effect; 10 is complete control
[1] = tested on: crabgrass (Digitaria sanguinalis)
Method in brief: (§1)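 Scored visually 0 (none) to 10 (complete control) against untreated plants after twelve to sixteen greenhouse days. Test chemicals, formulated in surfactant-containing non-phytotoxic solvent, applied to soil after planting and, separately, onto 1- to 4-leaf (2–18 cm) plants.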

[2] = tested on: bedstraw (Galium aparine)
Method in brief: as §1

[3] = tested on: blackgrass (Alopecurus myosuroides)
Method in brief: as §1

[4] = tested on: velvetleaf (Abutilon theophrasti)
Method in brief: as §1

[5] = tested on: wheat (Triticum aestivum)
Method in brief: as §1

[6] = tested on: rape (Brassica napus)
Method in brief: as §1

[7] = tested on: momingglory (Ipomoea hederacea)
Method in brief: as §1

[8] = tested on: soybean (Glycine max)
Method in brief: as §1

[9] = tested on: corn (Zea mays)
Method in brief: as §1

[10] = tested on: cocklebur (Xanthium strumarium)
Method in brief: as §1

[11] = tested on: broadleaf signalgrass (Brachiaria decumbens)
Method in brief: as §1

[12] = tested on: pigweed (Amaranthus retroflexus)
Method in brief: as §1

[13] = tested on: giant foxtail (Setaria faberii)
Method in brief: as §1

[14] = tested on: sugar beet (Beta vulgaris)
Method in brief: as §1

[15] = Preemergence, Rate 62 g/ha, scale of 0 to 10

Cc1cnc(-n2ccc(C(F)(F)C(F)(F)F)n2)nc1C(=O)c1cccc(OC(F)(F)F)c1 [Compound 62]
Plant response rating, Crabgrass [1, 15]: 2 | Crabgrass plant response rating ([1]; Rate 62 g/ha, Postemergence): 2 | Crabgrass plant response rating ([1]; Rate 125 g/ha, Postemergence): 3 | Plant response rating, Crabgrass ([1]; Rate 125 g/ha, Preemergence): 3 | Plant response rating, Crabgrass ([1]; Rate 250 g/ha, Postemergence): 5 | Plant response rating, Crabgrass ([1]; Rate 250 g/ha, Preemergence): 9 | Plant response rating, Crabgrass ([1]; Rate 500 g/ha, Postemergence): 8 | Plant response rating, Crabgrass ([1]; Rate 500 g/ha, Preemergence): 10 | Plant response rating, Bedstraw [2, 15]: 0 | Bedstraw plant response rating ([2]; Rate 62 g/ha, Postemergence): 3 | Bedstraw plant response rating ([2]; Rate 125 g/ha, Postemergence): 3 | Plant response rating, Bedstraw ([2]; Rate 125 g/ha, Preemergence): 1 | Plant response rating, Bedstraw ([2]; Rate 250 g/ha, Postemergence): 3 | Plant response rating, Bedstraw ([2]; Rate 250 g/ha, Preemergence): 2 | Plant response rating, Bedstraw ([2]; Rate 500 g/ha, Postemergence): 4 | Plant response rating, Bedstraw ([2]; Rate 500 g/ha, Preemergence): 6 | Plant response rating, Blackgrass [3, 15]: 1 | Blackgrass plant response rating ([3]; Rate 62 g/ha, Postemergence): 1 | Blackgrass plant response rating ([3]; Rate 125 g/ha, Postemergence): 1 | Plant response rating, Blackgrass ([3]; Rate 125 g/ha, Preemergence): 1 | Plant response rating, Blackgrass ([3]; Rate 250 g/ha, Postemergence): 2 | Plant response rating, Blackgrass ([3]; Rate 250 g/ha, Preemergence): 1 | Plant response rating, Blackgrass ([3]; Rate 500 g/ha, Postemergence): 4 | Plant response rating, Blackgrass ([3]; Rate 500 g/ha, Preemergence): 5 | Plant response rating, Velvetleaf [4, 15]: 1 | Velvetleaf plant response rating ([4]; Rate 62 g/ha, Postemergence): 2 | Velvetleaf plant response rating ([4]; Rate 125 g/ha, Postemergence): 2 | Plant response rating, Velvetleaf ([4]; Rate 125 g/ha, Preemergence): 2 | Plant response rating, Velvetleaf ([4]; Rate 250 g/ha, Postemergence): 2 | Plant response rating, Velvetleaf ([4]; Rate 250 g/ha, Preemergence): 2 | Plant response rating, Velvetleaf ([4]; Rate 500 g/ha, Postemergence): 3 | Plant response rating, Velvetleaf ([4]; Rate 500 g/ha, Preemergence): 7 | Plant response rating, Wheat [5, 15]: 0 | Wheat plant response rating ([5]; Rate 62 g/ha, Postemergence): 1 | Wheat plant response rating ([5]; Rate 125 g/ha, Postemergence): 2 | Plant response rating, Wheat ([5]; Rate 125 g/ha, Preemergence): 0 | Plant response rating, Wheat ([5]; Rate 250 g/ha, Postemergence): 2 | Plant response rating, Wheat ([5]; Rate 250 g/ha, Preemergence): 0 | Plant response rating, Wheat ([5]; Rate 500 g/ha, Postemergence): 3 | Plant response rating, Wheat ([5]; Rate 500 g/ha, Preemergence): 0 | Plant response rating, Rape [6, 15]: 0 | Rape plant response rating ([6]; Rate 62 g/ha, Postemergence): 2 | Rape plant response rating ([6]; Rate 125 g/ha, Postemergence): 2 | Plant response rating, Rape ([6]; Rate 125 g/ha, Preemergence): 1 | Plant response rating, Rape ([6]; Rate 250 g/ha, Postemergence): 2 | Plant response rating, Rape ([6]; Rate 250 g/ha, Preemergence): 2 | Plant response rating, Rape ([6]; Rate 500 g/ha, Postemergence): 3 | Plant response rating, Rape ([6]; Rate 500 g/ha, Preemergence): 3 | Plant response rating, Morningglory [7, 15]: 1 | Morningglory plant response rating ([7]; Rate 62 g/ha, Postemergence): 3 | Morningglory plant response rating ([7]; Rate 125 g/ha, Postemergence): 4 | Plant response rating, Morningglory ([7]; Rate 125 g/ha, Preemergence): 2 | Plant response rating, Morningglory ([7]; Rate 250 g/ha, Postemergence): 9 | Plant response rating, Morningglory ([7]; Rate 250 g/ha, Preemergence): 4 | Plant response rating, Morningglory ([7]; Rate 500 g/ha, Postemergence): 10 | Plant response rating, Morningglory ([7]; Rate 500 g/ha, Preemergence): 7 | Plant response rating, Soybean [8, 15]: 0 | Soybean plant response rating ([8]; Rate 62 g/ha, Postemergence): 1 | Soybean plant response rating ([8]; Rate 125 g/ha, Postemergence): 1 | Plant response rating, Soybean ([8]; Rate 125 g/ha, Preemergence): 0 | Plant response rating, Soybean ([8]; Rate 250 g/ha, Postemergence): 1 | Plant response rating, Soybean ([8]; Rate 250 g/ha, Preemergence): 0 | Plant response rating, Soybean ([8]; Rate 500 g/ha, Postemergence): 2 | Plant response rating, Soybean ([8]; Rate 500 g/ha, Preemergence): 1 | Plant response rating, Corn [9, 15]: 0 | Corn plant response rating ([9]; Rate 62 g/ha, Postemergence): 1 | Corn plant response rating ([9]; Rate 125 g/ha, Postemergence): 2 | Plant response rating, Corn ([9]; Rate 125 g/ha, Preemergence): 0 | Plant response rating, Corn ([9]; Rate 250 g/ha, Postemergence): 2 | Plant response rating, Corn ([9]; Rate 250 g/ha, Preemergence): 1 | Plant response rating, Corn ([9]; Rate 500 g/ha, Postemergence): 2 | Plant response rating, Corn ([9]; Rate 500 g/ha, Preemergence): 2 | Plant response rating, Cocklebur [10, 15]: 0 | Cocklebur plant response rating ([10]; Rate 62 g/ha, Postemergence): 2 | Cocklebur plant response rating ([10]; Rate 125 g/ha, Postemergence): 5 | Plant response rating, Cocklebur ([10]; Rate 125 g/ha, Preemergence): 0 | Plant response rating, Cocklebur ([10]; Rate 250 g/ha, Postemergence): 7 | Plant response rating, Cocklebur ([10]; Rate 500 g/ha, Postemergence): 7 | Plant response rating, Cocklebur ([10]; Rate 500 g/ha, Preemergence): 0 | B. signalgrass plant response rating ([11]; Rate 62 g/ha, Postemergence): 2 | B. signalgrass plant response rating ([11]; Rate 62 g/ha, Preemergence): 4 | B. signalgrass plant response rating ([11]; Rate 125 g/ha, Postemergence): 2 | Plant response rating, B. signalgrass ([11]; Rate 125 g/ha, Preemergence): 4 | Plant response rating, B. signalgrass ([11]; Rate 250 g/ha, Postemergence): 2 | Plant response rating, B. signalgrass ([11]; Rate 250 g/ha, Preemergence): 8 | Plant response rating, B. signalgrass ([11]; Rate 500 g/ha, Postemergence): 3 | Plant response rating, B. signalgrass ([11]; Rate 500 g/ha, Preemergence): 9 | Plant response rating, Redroot pigweed [12, 15]: 8 | Redroot pigweed plant response rating ([12]; Rate 62 g/ha, Postemergence): 8 | Redroot pigweed plant response rating ([12]; Rate 125 g/ha, Postemergence): 9 | Plant response rating, Redroot pigweed ([12]; Rate 125 g/ha, Preemergence): 9 | Plant response rating, Redroot pigweed ([12]; Rate 250 g/ha, Postemergence): 9 | Plant response rating, Redroot pigweed ([12]; Rate 250 g/ha, Preemergence): 10 | Plant response rating, Redroot pigweed ([12]; Rate 500 g/ha, Postemergence): 10 | Plant response rating, Redroot pigweed ([12]; Rate 500 g/ha, Preemergence): 10 | Plant response rating, Giant foxtail [13, 15]: 1 | Giant foxtail plant response rating ([13]; Rate 62 g/ha, Postemergence): 1 | Giant foxtail plant response rating ([13]; Rate 125 g/ha, Postemergence): 2 | Plant response rating, Giant foxtail ([13]; Rate 125 g/ha, Preemergence): 2 | Plant response rating, Giant foxtail ([13]; Rate 250 g/ha, Postemergence): 2 | Plant response rating, Giant foxtail ([13]; Rate 250 g/ha, Preemergence): 4 | Plant response rating, Giant foxtail ([13]; Rate 500 g/ha, Postemergence): 3 | Plant response rating, Giant foxtail ([13]; Rate 500 g/ha, Preemergence): 4 | Plant response rating, Sugarbeets [14, 15]: 8 | Sugarbeets plant response rating ([14]; Rate 62 g/ha, Postemergence): 9 | Sugarbeets plant response rating ([14]; Rate 125 g/ha, Postemergence): 9 | Plant response rating, Sugarbeets ([14]; Rate 125 g/ha, Preemergence): 10 | Plant response rating, Sugarbeets ([14]; Rate 250 g/ha, Postemergence): 9 | Plant response rating, Sugarbeets ([14]; Rate 250 g/ha, Preemergence): 10 | Plant response rating, Sugarbeets ([14]; Rate 500 g/ha, Postemergence): 9 | Plant response rating, Sugarbeets ([14]; Rate 500 g/ha, Preemergence): 10
